What was measured:
[1] = tested on: rat passive peritoneal anaphylaxis; assay: Rat Passive Peritoneal Anaphylaxis (PPA); type: in vivo, rat (Charles River Sprague Dawley male); conditions: Mean ± SEM, 5-7 rats per group, sodium salt
Source text: (a) inhibit rat passive peritoneal anaphylaxis; and
(§1) The compounds were used in the form of their sodium salts.
(§2) Charles River Sprague Dawley male rats of 250-300 g. and Dunkin Hartley male white guinea pigs of 250-300 g. were used.
The method has been described previously. (Ross, Janet W., Smith, H. and Spicer, Barbara A. Increased vascular permeability during passive peritoneal anaphylaxis in the rate. Int. Arch. Allergy appl. Immun., 51, 226, 1976).
Rats were sensitised by giving an intraperitoneal injection of 0.5 ml of Bordetella pertussis vaccine (4×10^10 organisms/ml Burroughs Wellcome, London) and a subcutaneous injection of 0.5 ml of an emulsion of 100 mg of ovalbumin (chicken egg albumin, crystallised and lyophilised, grade 3, Sigma, London) in 2 ml of isotonic saline and 3 ml of Freund's incomplete adjuvant (Difco Laboratories, Michigan, USA).
The rats were bled by cardiac puncture, on day 18, the blood was pooled, and the serum separated, stored at -20° C. and thawed only once before use.
Rats were each given an intraperitoneal injection of 2 ml of a 1 in 5 dilution of the rat anti-serum in isotonic saline. Two hours later 0.3 ml of a 5% solution of Pontamine Sky Blue (Raymond A. Lamb, London) in isotonic saline was injected intravenously, followed by an intraperitoneal injection of the test compound in 1 ml of saline; (control rats received 1 ml of saline); followed 30 seconds later by an intraperitoneal injection of 5 ml of Tyrode's solution containing 50 μg/ml heparin and 0.4 mg/ml of ovalbumin. The concentrations of the compounds are quoted as those in the 6 ml of fluid injected intraperitoneally. Exactly five minutes after challenge the rats were stunned and bled and their peritoneal fluids were collected by opening their peritoneal cavities over funnels into polycarbonate tubes in ice. The supernatants were separated from the cellular residue by centrifugation at 150 g. for five minutes and were retained for assay of dye and histamine. Any samples obviously contaminated with blood were not used for estimation of dye. Groups of at least five rats were used for each dose of compound and the treatments were randomised.
Dye was assayed within two hours by measurement of optical density (OD) at 625 nm.
For histamine assay 0.5 ml samples of the supernatants were added to 1 ml volumes of 12% trichloracetic acid and stored at -20° C. The deproteinised samples were assayed using an automated spectrofluorimetric system (Technicon Autoanalyser) by a method similar to that of Evans, D. P., Lewis, J. A. and Thomson, D. S.: (An automated fluorimetric assay for the rapid determination of histamine in biological fluids. Life Sci., 12, 327, 1973).

[2] = tested on: slow reacting substance of anaphylaxis, SRS-A, on isolated guinea pig ileum; assay: SRS-A Antagonism on Guinea Pig Ileum; parameters: species or system guinea pig (Dunkin Hartley male); conditions: atropine 5×10^-7 M and mepyramine 10^-6 M, sodium salt, read-out: Approximate concentration to give a 50% inhibition of a less than maximal response to SRS-A
Experimental: (b) antagonise the spasmogenic effects of slow reacting substance of anaphylaxis, SRS-A, on isolated guinea pig ileum.
as §1, §2
The compounds were evaluated as direct antagonists of slow reacting substance of anaphylaxis (SRS-A) by assay using the isolated guinea pig ileum.
SRS-A rat was obtained from the peritoneal cavity of the rat after passive peritoneal anaphylaxis by a method based on that of R. P. Orange, D. J. Stechschulte and K. F. Austen, J. Immunology, 105, 1087 (1970) as described by J. W. Ross, H. Smith and B. A. Spicer 1976, Increased vascular permeability during passive peritoneal anaphylaxis in the rat. Int. Arch. Allergy appl., 51, 226. The sensitising serum containing antibody was produced in rats as described by J. W. Ross et. al., ibid.
2 ml of a 1 in 5 dilution of the sensitising serum was injected by the peritoneal route into recipient rats and after 2 hours 5 ml of Tyrode's solution containing 0.4 mg/ml ovalbumin (Sigma Grade III) and 50 μg/ml heparin was injected by the same route. Five minutes after challenge the rats were stunned and bled and the peritoneal fluids collected into polycarbonate tubes in ice. After centrifugation at 150 g. for five minutes the supernatants were combined, heated in a boiling water bath for five minutes, cooled and stored at -20° C. The combined peritoneal fluids contained SRS-A and were used in the antagonism studies.
The SRS-A assays were carried out on isolated strips of guinea pig ileum in Tyrode's solution containing atropine 5×10^-7 M and mepyramine 10^-6 M as described by W. E. Brocklehurst, J. Physiology, 151, 416 (1960).
The ability of the antagonists was determined by their ability to reduce submaximal responses induced by SRS-A. The antagonists were added to the 4 ml bath in 0.1 ml volumes in aqueous solution half a minute before the addition of SRS-A and were present during induced contraction.

[3] = tested on: release of allergic response mediators; conditions: background art; cited from earlier work
[4] = tested on: released SRS-A; conditions: background art; cited from earlier work

SMILES	Dye concentration in peritoneal fluid as % of mean of controls ([1]; 2 × 10^-6 M injected ip)	Histamine concentration in peritoneal fluid as % of mean of controls ([1]; 2 × 10^-6 M injected ip)	Dye concentration in peritoneal fluid as % of mean of controls ([1]; 2 × 10^-7 M injected ip)	Histamine concentration in peritoneal fluid as % of mean of controls ([1]; 2 × 10^-7 M injected ip)	IC50 [2]	inhibition of release of allergic response mediators [3]	inhibition of released SRS-A [4]	Dye concentration in peritoneal fluid as % of mean of controls ([1]; 2 × 10^-5 M injected ip)	Histamine concentration in peritoneal fluid as % of mean of controls ([1]; 2 × 10^-5 M injected ip)
CCCc1c(OCC(O)COc2ccc3c(=O)c4[nH]nnc4oc3c2C)ccc(C(C)=O)c1O (stereo not shown) [Example 2, 6-[3-(4-Acetyl-3-hydroxy-2-n-propylphenoxy)-2-hydroxypropan-1-yloxy]-5-methyl-9-oxo-1H,9H-benzopyrano[2,3-d]-v-triazole]	42 ± 5 % of mean of controls	14 ± 2 % of mean of controls	61 ± 7 % of mean of controls	56 ± 1 % of mean of controls	~32 nM				
CCCc1c(OCC(O)COc2ccc3c(=O)c4[nH]nnc4oc3c2)ccc(C(C)=O)c1O (stereo not shown) [Example 3, 6-[3-(4-Acetyl-3-hydroxy-2-n-propylphenoxy)-2-hydroxypropan-1-yloxy]-9-oxo-1H,9H-benzopyrano[2,3-d]-v-triazole]	51 ± 5 % of mean of controls	16 ± 2 % of mean of controls	74 ± 9 % of mean of controls	56 ± 5 % of mean of controls	~63 nM				
CCCc1c(OCC(O)COc2ccc3c(=O)cc(C(=O)O)oc3c2CCC)ccc(C(C)=O)c1O (stereo not shown) [FPL 55712]						able to effect at least some inhibition of release of these allergic response mediators	inhibit released SRS-A		
CCCc1c(OCCCOc2cccc3oc4nn[nH]c4c(=O)c23)ccc(C(C)=O)c1O [Example 4, 8-[3-(4-Acetyl-3-hydroxy-2-n-propylphenoxy)-propan-1-yloxy]-9-oxo-1H,9H-benzopyrano-[2,3-d]-v-triazole]	104 ± 20 % of mean of controls	89 ± 7 % of mean of controls			~50 nM			92 ± 10 % of mean of controls	42 ± 6 % of mean of controls
CCCc1c(OCCCOc2ccc3c(=O)c4[nH]nnc4oc3c2C)ccc(C(C)=O)c1O [Example 1, 6-[3-(4-Acetyl-3-hydroxy-2-n-propylphenoxy)propan-1-yloxy]-5-methyl-9-oxo-1H,9H-benzopyrano[2,3,d]-v-triazole]	63 ± 5 % of mean of controls	18 ± 2 % of mean of controls			~100 nM			54 ± 7 % of mean of controls	17 ± 2 % of mean of controls

— US4427686A, “Pharmacologically active benzopyranotriazole compounds” (Beecham Group Limited, priority 1980, dated 1984)
